Data published in patent US20210059590A1, “IDENTIFICATION OF AND TREATMENT FOR PERSONS AT HIGH RISK FOR DEVELOPING MAJOR DEPRESSIVE DISORDER” (The Trustees of Columbia University in the City of New York, priority 2018, published 2021).
Where two headings read alike, the source gives them in different places.

Assay: Plasma free fraction (fP) of the PET tracer
Type: in vitro ADME, human
Conditions: for fraction unbound: human, plasma
Description: Arterial plasma radioactivity, metabolites, and plasma free fraction (fP) were collected and assayed as previously described (Parsey et al., 2006; Parsey et al., 2000). Unmetabolized parent fraction levels were fit with a Hill function (Wu et al., 2007). The input function was corrected for unmetabolized tracer by multiplying the total plasma counts with the interpolated parent fraction. The metabolite-corrected arterial input function was fit as the combination of a straight line and the sum of three decreasing exponentials, describing the function before and after the peak, respectively.

Percent Free Fraction (Depressed NRM MDD subjects, N=30, mean ± SD): 6.15 ± 1.72% | Percent Free Fraction (Healthy Volunteers (HV), N=51, mean ± SD): 8.10 ± 2.39% | fraction unbound (Depressed NRM MDD subjects, N=30, mean ± SD, read-out: Percent Free Fraction): ~0.062 | fraction unbound (Healthy Volunteers (HV), N=51, mean ± SD, read-out: Percent Free Fraction): ~0.08 | fraction unbound (High Risk (HR) subjects, N=9, mean ± SD, read-out: Percent Free Fraction): 0.065 | fraction unbound (Medication Exposed MDD patients, n=66, off antidepressants at least two weeks, read-out: Plasma free fraction (fp)): 0.07 ± 0.02 | fraction unbound (Medication Naïve MDD patients, n=32, read-out: Plasma free fraction (fp)): 0.06 ± 0.02
Compound: COc1ccccc1N1CCN(CCN(C(=O)C2CCCCC2)c2ccccn2)CC1 [[^11C]WAY-100635, N-[2-[4-(2-methoxyphenyl)-1-piperazinyl]ethyl]-N-2-pyridinylcyclohexanecarboxamide]
